Measured values published in patent publication US20080241862A1, “PROPIONYL AND BUTYRYL LYSINE MODIFICATIONS IN PROTEINS” (priority 2007, published 2008).

System: K^Buty of H3 and H4 in HeLa cells
Test: K^Buty level in histones of HeLa cells treated with HDAC inhibitors (immunoblot)
Type: cell-based
Settings: anti-K^Buty immunoblot
Description: FIGS. 17A-C. […] Four peptide libraries were spotted on nitrocellulose membrane with four dilutions and were used to assay the antibody's specificity. The 14-residue randomized peptide libraries have a fixed residue at 8th position, K^Ac in lane 1, K^Prop in lane 2, K^Buty in lane 3, and K in lane 4. Dot-blot analysis was used to test the specificity of the antibody. To perform the dot-blot analysis, 2 ul of peptide diluted in distilled water to different concentrations was spotted on a strip of nitrocellulose membrane and allowed to air dry. The membrane was then assayed in a manner similar to that used in the immunoblot analysis. […] Lane 3 and 4 are WB controls using anti-H3 and anti-H4 antibodies, respectively. For antibody competition assay, 200 ng of anti-K^Buty antibody was incubated with 1 ug of a peptide library with a fixed non-modified lysine (lane 1) or with a fixed butyryllysine (lane 2), respectively. After incubation for 3 hour at room temperature, the antibody was subjected to immunoblot against core histones derived from Hela cells. Histone H3 and H4 antibodies were used to indicate the positions of H3 or H4 (lane 3 and lane 4). […] The core histones were prepared from HeLa cells treated with nothing, or trichostatin A (TSA), or sodium butyrate (NaBu), as indicated. […]

For CCCC(=O)[O-].[Na+] [sodium butyrate], the “K^Buty level” value (20 mM for 6 hours) was “dramatically induced”.
With CC(/C=C/C(=O)NO)=C\[C@@H](C)C(=O)c1ccc(N(C)C)cc1 [trichostatin A] the “K^Buty level” value (10 uM, 6 Hours) was “dramatically induced”.
